Patent US20090238808A1, “Process for the identification of novel enzyme interacting compounds” (priority 2005, published 2009)

molecular target: T1, EphB2 (Mus musculus, UniProt P54763); test: Kinobeads elution with test compound, mouse brain lysate, MS; type: binding; settings: kinase released from kinobeads by specific elution
T1 sequence (P54763 19-986): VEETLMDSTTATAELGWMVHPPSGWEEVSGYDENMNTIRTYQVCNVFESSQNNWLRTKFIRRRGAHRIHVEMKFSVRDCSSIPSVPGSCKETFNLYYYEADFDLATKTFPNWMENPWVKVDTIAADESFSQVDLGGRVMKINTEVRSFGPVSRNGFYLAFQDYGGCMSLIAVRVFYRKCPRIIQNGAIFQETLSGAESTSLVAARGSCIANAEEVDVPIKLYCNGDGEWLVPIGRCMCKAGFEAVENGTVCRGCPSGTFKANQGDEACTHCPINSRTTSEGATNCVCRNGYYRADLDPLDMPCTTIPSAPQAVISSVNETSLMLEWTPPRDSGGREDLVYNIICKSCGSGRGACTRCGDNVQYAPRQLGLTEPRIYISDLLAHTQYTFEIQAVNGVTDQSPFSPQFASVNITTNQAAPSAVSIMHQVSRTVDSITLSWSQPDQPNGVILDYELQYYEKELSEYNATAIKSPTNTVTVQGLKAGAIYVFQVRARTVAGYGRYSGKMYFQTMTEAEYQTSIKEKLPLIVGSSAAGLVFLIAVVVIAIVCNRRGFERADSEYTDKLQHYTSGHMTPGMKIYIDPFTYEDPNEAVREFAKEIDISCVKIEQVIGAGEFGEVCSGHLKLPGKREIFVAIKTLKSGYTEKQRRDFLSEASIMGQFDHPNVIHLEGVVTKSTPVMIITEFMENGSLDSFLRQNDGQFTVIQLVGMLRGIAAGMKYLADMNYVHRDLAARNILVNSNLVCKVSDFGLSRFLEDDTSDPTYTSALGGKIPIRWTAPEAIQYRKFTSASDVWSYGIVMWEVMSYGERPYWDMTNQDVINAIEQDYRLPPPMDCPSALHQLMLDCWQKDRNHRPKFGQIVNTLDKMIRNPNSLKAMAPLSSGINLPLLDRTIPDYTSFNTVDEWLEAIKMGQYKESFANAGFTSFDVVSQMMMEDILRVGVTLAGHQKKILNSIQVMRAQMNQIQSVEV
Procedure: This example illustrates competitive elution of proteins bound to kinobeads with non-modified test compounds (see particularly the fourth aspect of the invention). The kinobeads (as described in example 1) were contacted with mouse brains lysate, bound proteins were eluted with various test compounds and the released proteins were analysed by mass spectrometry.
The kinobeads were contacted with mouse brain lysate under conditions that allow the binding of the proteins in the lysate to the ligands. The binding conditions were close to physiological by choosing suitable buffer conditions preserving the function of the proteins. After removing non-captured proteins through a gentle washing procedure the bound proteins were contacted with a test compound for protein elution.
Various test compounds (see section 2.7) were used to release bound proteins following these steps:
1. Resuspend beads with bound proteins (section 2.4) in 1×DP buffer/0.2% NP-40 as 1:3 slurry (volume/volume). 2. Transfer 20 μl the 1:3 slurry into MoBiTech columns (equivalent to 5 μl of beads). 3. Place the column into an Eppendorf tube and centrifuge it for 15 seconds at 800 rpm at 4° C. Close columns with lower lid. 4. Add 10 μl elution buffer containing 1.0 mM of the test compound (concentration ranges of 0.1 to 1.0 mM are suitable). As a control use elution buffer containing 2% DMSO or 2% DMF dependent on the solvent used for dissolving the test compound. Close column with upper lid. 5. Incubate for 30 minutes at 4° C. in an Eppendorf incubator at 700 rpm. 6. Open column (first top, then bottom), put column back into siliconized tube (SafeSeal Microcentrifuge Tubes, cat. no 11270, Sorenson BioScience, Inc.). To harvest the eluate centrifuge 2 minutes at 2.000 rpm in table top centrifuge at room temperature. The typical volume of the eluate is approximately 15 μl. 7. Add 5 μl 4× NuPAGE SDS Sample Buffer (Invitrogen, NP0007) containing 100 mM DTT (DTT has to be added just prior to use). 8. Incubate for 30 minutes at 50° C. 9. Add 1/10 volume of 200 mg/ml iodoacetamide, incubate for 30 min at room temperature, protect from light. This reaction leads to the alkylation of cysteines for mass spectrometry. 10. Before loading samples onto the gel, centrifuge samples for 5 minutes at 15.000 rpm in order to remove precipitates. 11. For protein separation apply 10 μl sample to NuPAGE 4-12% Bis-Tris gel (Invitrogen, NPO335). 2.6 Preparation of Stock Solutions used in this Protocol
Search criteria varied depending on which mass spectrometer was used for the analysis.

Row | SMILES | mass spectrometry score, EphB2 | number of identified peptides, EphB2
1 | CC(C)[C@H](CO)Nc1nc(Nc2ccc(C(=O)O)c(Cl)c2)c2ncn(C(C)C)c2n1 [Purvalanol B, reference compound] | 1334 | 30
2 | CNC1CC2OC(C)(C1OC)n1c3ccccc3c3c4c(c5c6ccccc6n2c5c31)C(=O)NC4 (stereo not shown) [CZC9280] | 114 | 4
3 | CCCCCCCCCCCCOS(=O)(=O)[O-].[Na+] [SDS] | 437 | 19

Second part, the compound after the results:

Row | mass spectrometry score, EphB2 | number of identified peptides, EphB2 | SMILES
4 | 149 | 5 | NCc1ccc(Nc2ncc(F)c(Nc3ccccc3)n2)cc1 [CZC00008004]
5 | 1004 | 22 | Cn1c(=O)c(-c2c(Cl)cccc2Cl)cc2cnc(Nc3ccc(CN)cc3)cc21 [CZC7324]
